Measurements from article PMC9143738, “New Chemotypes for the Inhibition of (p)ppGpp Synthesis in the Quest for New Antimicrobial Compounds” (Molecules, 2022).

How the values were obtained:
Format in all cases: binding, S. equisimilis
[1] = target: T1, RelSeq SYNTH (residues 79–385) (Streptococcus dysgalactiae subsp. equisimilis, UniProt Q54089); experiment: Thermal shift assay on RelSeq SYNTH; conditions: titration 0.3–10 mM, pH 8
T1 construct: His-tag (C); made in house; host or cells: BL21(DE3) Escherichia coli
T1 sequence (Q54089 79-385): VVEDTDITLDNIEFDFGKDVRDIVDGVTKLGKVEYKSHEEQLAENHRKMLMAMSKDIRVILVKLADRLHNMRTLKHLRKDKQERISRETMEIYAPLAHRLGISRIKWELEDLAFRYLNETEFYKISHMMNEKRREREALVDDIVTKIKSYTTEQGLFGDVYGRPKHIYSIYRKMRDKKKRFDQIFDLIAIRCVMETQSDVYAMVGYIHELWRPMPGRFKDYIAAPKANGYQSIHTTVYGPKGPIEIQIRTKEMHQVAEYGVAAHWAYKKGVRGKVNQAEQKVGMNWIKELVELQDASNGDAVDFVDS
Experimental: (§1) Thermal shift assays on selected fragments vs. RelSeq constructs. The binding of the selected fragments to RelSeq constructs was assessed by titration of the protein in thermal shift assays, performed using a Step One Real-Time PCR system (Thermo Fisher Scientific, Waltham, MA, USA). […] Assays were performed in triplicate at a final volume of 15 µL in MicroAmp™ Fast Optical 48-well reaction plates (Thermo Fisher Scientific, Waltham, MA, USA) sealed with adhesive films. Plates were heated from 25 to 90 °C with a heating rate of 0.5 °C/min. The Kd of protein–ligand complexes engaged by RelSeq constructs with the tested fragments was calculated from the plot of protein melting temperature variations as a function of fragment concentrations with the equation for Ligand Binding (1 site) provided with the software GraFit 5.0 (Erithacus Software, Staines, UK).

[2] = target: T2, RelSeq HYD (1–224) (Streptococcus dysgalactiae subsp. equisimilis, UniProt Q54089); experiment: STD-NMR with RelSeq HYD; conditions: fragment:protein ratio 1000:1; fragment concentration 3 mM
T2 construct: His-tag (C); made in house; host or cells: BL21(DE3) Escherichia coli
T2 sequence (Q54089 1-224): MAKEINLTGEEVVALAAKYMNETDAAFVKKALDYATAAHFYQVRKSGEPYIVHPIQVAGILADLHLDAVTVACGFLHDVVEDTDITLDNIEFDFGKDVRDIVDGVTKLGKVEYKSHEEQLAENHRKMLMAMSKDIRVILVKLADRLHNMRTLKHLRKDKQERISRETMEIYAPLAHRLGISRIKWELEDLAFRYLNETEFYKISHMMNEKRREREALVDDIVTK
Experimental: (§2) The relatively weak affinity of the fragments measured by TSA directed us towards NMR methods to assess the specificity of the fragments-protein interactions. […] In particular, STD (Saturation Transfer Difference) exploits NOE effects between the protein and the ligand to map target–ligand interactions and to characterize biologically relevant complexes.
(§3) STD-NMR experiments on selected fragments vs. RelSeq constructs. Experiments were performed on a 600 MHz Bruker Avance spectrometer. All experiments were acquired at 298 and 283 K on the free ligands in deuterated phosphate buffer pH 7.4. A DMSO-d6 percentage of about 5% was added to dissolve the fragments. In 1D spectra, water suppression was achieved by excitation sculpting sequence. STD NMR experiments were performed using WATERGATE 3-9-19 pulse sequence for water suppression. On-resonance irradiation of the protein was performed at a chemical shift of −0.05 ppm and 10 ppm; off-resonance irradiation was applied at 200 ppm, where no protein signals were visible. Selective pre-saturation of the protein was achieved by a train of Gauss-shaped pulses of 49 ms in length each. STD spectra were acquired with a saturation time of 2.94 s for all compounds. Blank experiments were conducted in the absence of protein in order to avoid artifacts.

[3] = target: T3, RelSeq HYD (residues 1–224) (Streptococcus dysgalactiae subsp. equisimilis, UniProt Q54089); experiment: Thermal shift assay on RelSeq HYD; conditions: titration 0.3–10 mM, pH 8
T3 construct: His-tag (C); made in house; host or cells: BL21(DE3) Escherichia coli
T3 sequence (Q54089 1-224): as above
Experimental: as §1

[4] = target: T4, RelSeq 1–385 (Streptococcus dysgalactiae subsp. equisimilis, UniProt Q54089); experiment: STD-NMR with RelSeq (1–385); conditions: fragment:protein ratio 1000:1; fragment concentration 3 mM
T4 construct: His-tag (C); host or cells: BL21(DE3) Escherichia coli
T4 sequence (Q54089 1-385): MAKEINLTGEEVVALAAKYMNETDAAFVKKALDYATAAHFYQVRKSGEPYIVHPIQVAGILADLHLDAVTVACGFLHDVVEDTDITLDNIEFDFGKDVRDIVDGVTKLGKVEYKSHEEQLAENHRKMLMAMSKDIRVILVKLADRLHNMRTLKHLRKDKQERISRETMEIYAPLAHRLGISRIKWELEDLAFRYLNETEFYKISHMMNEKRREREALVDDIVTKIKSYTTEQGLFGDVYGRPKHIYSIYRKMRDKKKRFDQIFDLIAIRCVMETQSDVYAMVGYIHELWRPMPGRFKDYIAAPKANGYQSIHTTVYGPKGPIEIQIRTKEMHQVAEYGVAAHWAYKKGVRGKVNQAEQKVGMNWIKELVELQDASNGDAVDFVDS
Experimental: as §2, §3

[5] = target: T5, RelSeq SYNTH (79–385) (Streptococcus dysgalactiae subsp. equisimilis, UniProt Q54089); experiment: STD-NMR with RelSeq SYNTH; conditions: fragment:protein ratio 1000:1; fragment concentration 3 mM
T5 construct: His-tag (C); made in house; host or cells: BL21(DE3) Escherichia coli
T5 sequence (Q54089 79-385): as the sequence (Q54089 79-385) above
Experimental: as §2, §3

[6] = target: T4, RelSeq 1–385; experiment: Thermal shift assay on RelSeq 1–385
From the text: Thermal shift is an experimental technique in which protein thermal denaturation is monitored following the increase in fluorescence reported by a protein-bound dye. In particular, an environment-sensitive hydrophobic dye (e.g., SYPRO Orange) binds to hydrophobic regions that become progressively exposed during thermal denaturation, resulting in an increase in its fluorescence emission. Since the binding of small molecules (e.g., fragments) to the protein can cause conformational changes that affect its melting temperature, this technique allows the screening of several compounds in a range of concentrations without consuming sizeable amounts of protein.
We therefore evaluated the affinity of the 18 fragments selected from our in silico screening for the bifunctional protein RelSeq by titration of the protein in a thermal shift assay (Table 1).
as §1, with “USA). Assays were performed in 20 mM Tris-HCl, pH 8, containing 150 mM NaCl. The final protein concentration was kept at 0.5 mg/mL for all RelSeq constructs, and the fluorescent Protein Thermal Shift Dye (Thermo Fisher Scientific, Waltham, MA, USA) was used to monitor protein unfolding within the excitation/emission ranges 470–505/540–700 nm.” for “USA).”

[7] = target: T4, RelSeq 1–385; experiment: Tryptophan assay; conditions: read-out: Kd RelSeq 1–385 measured by tryptophan assay (converted)
From the text: With the aim of studying protein–ligand interactions between RelSeq constructs and selected fragments, we evaluated the use of different techniques, such as tryptophan assay, microscale thermophoresis (MST), isothermal calorimetry (ITC) or thermal shift assay (TSA). The tryptophan assay is based on ligand-induced conformational changes in the local environment surrounding tryptophan residues in the target protein. Irradiation at 280 nm is followed by the detection of tryptophan fluorescence emission at different wavelengths. We used this technique to measure the Kd values of the natural substrates GDP and ATP (see below), but it is not applicable in the case of fragments due to their high absorbance at 280 nm. On the other hand, the currently available protein-labeling reagents for MST were not compatible with our protein constructs. We chose TSA over ITC due to its higher potential throughput and lower amount of protein required.

[8] = thermal shift assay, titration 0.3–10 mM, pH 8

Row | Compound | Kd [1] [mM] | Kd RelSeq HYD [3] | Kd [6] [mM] | other results
1 | Nc1ccccc1C(=O)O [A1] | 10.8 ± 2.2 | No binding | 1.2 ± 0.3 | STD-NMR interaction with RelSeq HYD (1–224) [2]: did not produce any magnetization transfer; STD-NMR interaction with RelSeq (1–385) [4]: good interaction for the aromatic protons; STD-NMR interaction with RelSeq SYNTH (79–385) [5]: Comparable overall STD intensities
2 | Nc1c(Cl)cc(Cl)cc1C(=O)O [A2] | – | No binding | – | Kd RelSeq SYNTH [1]: No binding; STD-NMR interaction with RelSeq (1–385) [4]: did not show any significant interaction; Kd RelSeq 1–385 [6, 8]: No binding
3 | Nc1ccc(F)cc1C(=O)O [A3] | 5.5 ± 0.9 | No binding | 1.5 ± 0.1 | –
4 | Nc1cccc(C(=O)O)c1 [A4] | 9.8 ± 2.8 | No binding | 6.6 ± 0.1 | –
5 | COc1ccc(C(=O)O)cc1N [A5] | 2.2 ± 0.4 | No binding | 1.1 ± 0.2 | –
6 | Nc1ccc(C(=O)O)c(Cl)c1 [A6] | 6.5 ± 1.2 | No binding | 4.3 ± 1.1 | –
7 | COc1cc(C(=O)O)ccc1N [A7] | 4.3 ± 0.5 | No binding | 4 ± 0.9 | –
8 | Nc1ncnc2c1ncn2[C@@H]1O[C@H](COP(=O)(O)OP(=O)(O)OP(=O)(O)O)[C@@H](O)[C@H]1O [ATP, reference compound] | – | – | – | Kd [7]: 390 µM; Kd ([6]; thermal shift assay, titration 0.3–10 mM, pH 8, read-out: Kd RelSeq 1–385): 0.49 ± 0.09 mM
9 | OCc1ccc2[nH]cnc2c1 [B1] | – | No binding | – | Kd RelSeq SYNTH [1]: No binding; STD-NMR interaction with RelSeq (1–385) [4]: did not show any significant interaction; Kd RelSeq 1–385 [6, 8]: No binding
10 | O=C(O)c1ccc2[nH]cnc2c1 [B2] | – | – | – | Kd RelSeq SYNTH [1]: No binding; Kd [3]: 1.9 ± 0.7 mM; Kd RelSeq 1–385 [6, 8]: Biphasic
11 | O=C(O)c1cccc2[nH]cnc12 [B3] | 4.3 ± 0.4 | – | 3.4 ± 0.3 | Kd [3]: 3.3 ± 0.9 mM
12 | O=C(O)c1cc2nc[nH]c2cc1C(=O)O [B4] | – | No binding | – | Kd RelSeq SYNTH [1]: No binding; Kd RelSeq 1–385 [6, 8]: No binding
13 | O=C(O)c1ccc2ocnc2c1 [BO1] | 2.7 ± 0.6 | No binding | 2.2 ± 0.3 | –
14 | O=C(O)c1ccc2nn[nH]c2c1 [BT1] | – | No binding | – | Kd RelSeq SYNTH [1]: No binding; Kd RelSeq 1–385 [6, 8]: No binding
15 | O=C(O)c1ccc2cc[nH]c2c1 [I1] | 9.6 ± 1.5 | No binding | 6.5 ± 1.1 | –
16 | O=C(O)c1ccc2[nH]ccc2c1 [I2] | 5.5 ± 0.9 | No binding | 2.5 ± 0.6 | –
17 | O=C(O)c1cccc2[nH]ccc12 [I3] | 9.9 ± 4.5 | No binding | 4 ± 0.5 | –
18 | O=C(O)Cc1c[nH]c2ccc(F)cc12 [I4] | > 15 | No binding | 3.2 ± 0.7 | –
19 | CC(C)c1cc(C(=O)O)nc2ncnn12 [TP1] | 8.3 ± 1.6 | No binding | 3.4 ± 0.8 | –
